Data on 4 compounds can be found in US20070244199A1 (priority 2006, published 2007).

One series has as its system M. tuberculosis (H37Rv). Kind of series: BACTEC radiometric MIC determination against M. tuberculosis. It is filed as cell-based. The conditions noted are these: Mycobacterium tuberculosis, read-out: MIC against M.tb.
A short description of series [1]: Pro-drug decomposition at acid and physiologic pH. It is filed as physicochemical. How it is done: At physiologic pH (or about 7.5), the molecule slowly breaks down (with a half-time of about 15 hours) to release DSA. This property would enhance the prolonged maintenance of plasma concentrations of the active drug. The MICs of these pro-drug molecules are 6.25 μg/ml (for the 10 carbon compound) and 12.5 μg/ml (for the 8 carbon compound).

The next series deals with M. bovis BCG. As to the kind of experiment: microbe, parasite or virus in culture. It is filed as cell-based, Mycobacterium bovis BCG. The conditions noted are these: for MIC: Mycobacterium tuberculosis variant bovis BCG, BCG, read-out: minimum inhibitory concentration (MIC).
Series [2] relates to M. avium subspecies paratuberculosis (PTB). As to the kind of experiment: BACTEC inhibition of PTB (paratuberculosis). It is filed as cell-based, Mycobacterium avium subspecies paratuberculosis. To be noted: for activity against PTB (BACTEC growth index over time): single agents at the highest concentration. An excerpt: The MIC was defined as the lowest inhibitor concentration that yielded a growth index change less than that of the 1:100 control bottle. A modification of this protocol was used for MIC determinations of MAC and M. avium subspecies paratuberculosis (Parrish, 2004). Susceptibilities and MIC determinations of M. tuberculosis isolates to isoniazid, streptomycin, ethambutol, rifampin, and pyrazinamide were done using standard BACTEC methods (Siddiqi, 1992). All primary drugs were purchased from Becton Dickinson (Sparks, Md.).
The inhibition assay was performed essentially as described in Example 1 for TB and BCG. Briefly, PTB inoculum was standardized by use of “seed vials” of a suspension of microorganisms in supplemented media. The suspension was vortexed with glass beads and then 0.3 ml to 0.5 ml was introduced into individual supplemented BACTEC 12B vials. Vials were subsequently incubated at 37° C. and the GI recorded until reaching 999. At that time, 0.3 ml of the “seed vial” was introduced into test and compound containing vials. Vials were then read at 24-hour intervals and the rest of the procedure followed as for TB and BCG. The MIC determination was the same as for TB and BCG.

A further series relates to mycobacteria. Kind of series: In vitro sterilizing model. It is filed as cell-based.
For series [3], the system named is latent (hypoxic) mycobacteria. As to the kind of experiment: Killing of latent (hypoxic) mycobacteria in vitro. It is filed as cell-based.
The mark [4] stands for this setting: agent alone at 1.5 μg/ml (FIG. 1, FIG. 2).
Setting [5] is: agent alone, DSA at 1/2, 1/4, or 1/8 of the MIC, NSA or OSA at the same concentrations as DSA (FIG. 1).
The mark [6] stands for this setting: PTB strain #2, combination at 12.5 or 25.0 μg/ml each (FIG. 5).
The mark [7] stands for this setting: PTB strain #4, combination at 12.5 or 25.0 μg/ml each (FIG. 6).
Setting [8] is: PTB strain #8, combination at 12.5 or 25.0 μg/ml each (FIG. 7).
Setting [9] is: PTB strain #15, combination at 12.5 or 25.0 μg/ml each (FIG. 9).
The mark [10] stands for this setting: PTB strain #13, combination at 12.5 or 25.0 μg/ml each (FIG. 8).

Structures are written as SMILES. ≈ marks a conversion by molar mass, not a printed value. Entries after “also recorded” stand apart in the source; their conditions may differ.

For `CCCCCCCCCCS(=O)(=O)CC(=O)NCN1CCOCC1` [10 carbon compound], the MIC in the series with M. tuberculosis (H37Rv) was determined as 6.25 µg/mL (≈ 17.2 µM). In addition, the “decomposition in acid pH” value in series [1] (acid pH) is given as “resists decomposition”. For the same compound, the “half-time of breakdown to release DSA” value in series [1] (physiologic pH (or about 7.5)) was “about 15 hours”.

In the case of `CCCCCCCCCCS(=O)(=O)CC(N)=O` [DSA, n-decanesulphonylacetamide], the MIC was 1.5 µg/mL (≈ 5.69 µM) in the series on M. bovis BCG; roughly 1 µg/mL (≈ 3.8 µM) with M. tuberculosis (H37Rv); no less than 25 µg/mL in series [2] (Mycobacterium avium, agent alone (FIGS. 4-9), read-out: MIC, various strains of PTB). Besides, the figures for the “inhibition of growth of M. bovis BCG cells” value (shortened to “inhibition”) in the series with M. bovis BCG (setting [4]) and in the series on M. bovis BCG (setting [5]) were “some activity; also recorded: inhibit the growth” and “no effect”, respectively. Moreover, the “activity against PTB (BACTEC growth index over time)” value in series [2] (setting [6]), in series [2] (setting [7]), in series [2] (setting [8]) and in series [2] (setting [9]) was “some activity” each time. Moreover, the “activity in an in vitro sterilizing model” value in the series on mycobacteria is given as “active”. Further, the “killing of latent (hypoxic) mycobacteria in vitro” value in series [3] is reported as “kill latent (hypoxic) mycobacteria”.

Take `CCCCCCCCCS(=O)(=O)CC(N)=O` [NSA, n-nonanesulphonylacetamide]: in the series with M. bovis BCG, the MIC is 3 µg/mL (≈ 12 µM). Also, the “inhibition” value in the series with M. bovis BCG (setting [4]) is listed as “ineffective”; in the series with M. bovis BCG (setting [5]) it was “no effect”. Also, the “activity against PTB (BACTEC growth index over time)” value in series [2] (setting [6]), in series [2] (setting [7]), in series [2] (setting [8]), in series [2] (setting [10]) and in series [2] (setting [9]) was “some activity” throughout. Further, the “MIC, various strains of PTB” value in series [2] (agent alone (FIGS. 4-9)) is on record as “considerably higher”.

For the compound `CCCCCCCCS(=O)(=O)CC(N)=O` [OSA, n-octanesulphonylacetamide], the MIC in the series on M. bovis BCG turned out to be 6.25 µg/mL (≈ 26.6 µM). Also, the “inhibition” value in the series on M. bovis BCG (setting [4]) was “ineffective”; in the series on M. bovis BCG (setting [5]), “no effect”. Besides, the “activity against PTB (BACTEC growth index over time)” value in series [2] (setting [6]), in series [2] (setting [7]), in series [2] (setting [8]), in series [2] (setting [10]) and in series [2] (setting [9]) was “no activity” in each case. Also, the “MIC, various strains of PTB” value in series [2] (agent alone (FIGS. 4-9)) is “considerably higher”.
